Reference: US7259004B1, “Endophytic streptomycetes from higher plants with biological activity” (Montana State University, priority 2002, dated 2007)
Values after ≈ are worked out from the molar mass of the structure shown. Like-named read-outs stand apart in the source and are kept apart here.

Assays:
Bacillus anthracis 14578 = assay: microbe, parasite or virus in culture; format: cell-based; conditions: Bacillus anthracis, 14578, read-out: MIC Bacillus anthracis 14578
[1] = test system: Protein synthesis in Bacillus subtilis; assay: macromolecular synthesis whole cell assay, [3H]amino acid mixture incorporation; format: cell-based; conditions: 1×MIC
E. faecalis 29212 = assay: microbroth dilution MIC; format: cell-based, Enterococcus faecalis; conditions: Enterococcus faecalis, ATCC29212; Table 15; read-out: MIC Enterococcus faecalis ATCC 29212
[2] = test system: DNA synthesis in Bacillus subtilis; assay: macromolecular synthesis whole cell assay, [3H]thymidine incorporation; format: cell-based; conditions: 5 min; 1×MIC
[3] = test system: Staphylococcus aureus ATCC 33591 (MRSA); assay: microbroth dilution MIC; format: cell-based; conditions: Staphylococcus aureus; Table 15
Bacillus anthracis 28 = assay: microbe, parasite or virus in culture; format: cell-based; conditions: Bacillus anthracis, 28, read-out: MIC Bacillus anthracis 28
[4] = test system: Staphylococccus aureus 27734; assay: microbroth dilution MIC; format: cell-based, Staphylococcus aureus; conditions: Staphylococcus aureus, ATCC27734; Table 15; read-out: MIC Staphylococcus aureus ATCC 27734
[5] = test system: Enterococcus faecalis ATCC 51299 (VRE); assay: microbroth dilution MIC; format: cell-based; conditions: Enterococcus faecalis; Table 15
[6] = test system: Human Lung Cancer Epithelial A549; assay: CellTiter 96 Aqueous Non-Radioactive Cell Proliferation Assay; format: cell-based; conditions: Homo sapiens, A549, read-out: IC50 Human Lung Cancer Epithelial A549
How it was run: (§1)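 Cells rested 5 h at 37° C after seeding, then treated in triplicate with two-fold serial dilutions of compound. A-549 and ME-180 were exposed for 48 h. After 1–4 h MTS reagent at 37° C, OD490 was read and corrected by subtracting medium-only blanks.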

[7] = test system: Human Primary Mammary Epithelial HMEC; assay: as above; format: cell-based; conditions: Homo sapiens, HMEC, read-out: IC50 Human Primary Mammary Epithelial HMEC, Table 12
[8] = as above; format: cell-based, human; conditions: human, read-out: IC50 cytotoxicity, human mammary epithelial cells
[9] = test system: Human Breast Cancer Epithelial BT-20; assay: as above; format: cell-based; conditions: for IC50: Homo sapiens
[10] = test system: Human Cervical Cancer Epithelial ME180; assay: as above; format: cell-based; conditions: Homo sapiens, ME-180, read-out: IC50 Human Cervical Cancer Epthelial ME180
How it was run: as §1

S. epidermis 12228 = assay: microbroth dilution MIC; format: cell-based, Staphylococcus epidermidis; conditions: Staphylococcus epidermidis, ATCC12228; Table 15; read-out: MIC Staphylococcus epidermidis ATCC 12228
B. subtilis 1A757 = assay: microbe, parasite or virus in culture; format: cell-based, Bacillus subtilis; conditions: for MIC: Bacillus subtilis, read-out: MIC B. subtilis 1A757
[11] = test system: Listeria monocytogenes 19115; assay: microbroth dilution MIC; format: cell-based; conditions: Listeria monocytogenes, ATCC19115; Table 15; read-out: MIC Listeria monocytogenes ATCC 19115
[12] = solubility in acetonitrile
[13] = test system: Staphylococcus aureus GISA, ATCC 700787; assay: microbroth dilution MIC; format: cell-based; conditions: ATCC700787, Table 15, read-out: MIC Staphylococcus aureus GISA, ATCC 700787
[14] = test system: Bacillus anthracis 40/BA 100; assay: microbe, parasite or virus in culture; format: cell-based; conditions: 40/BA100, read-out: MIC Bacillus anthracis 40/BA 100
[15] = test system: Plasmodium falciparum strain CSC-1 (Honduras); assay: antimalarial assay, 3H-phenylalanine radiobioassay in human red blood cells; conditions: Plasmodium falciparum, Erythrocyte, read-out: IC50 Plasmodium falciparum
Bacillus anthracis 62-8 = assay: microbe, parasite or virus in culture; format: cell-based; conditions: Bacillus anthracis, 628, read-out: MIC Bacillus anthracis 62-8
[16] = test system: Listeria monocytogenes 19114; assay: microbroth dilution MIC; format: cell-based; conditions: Listeria monocytogenes, ATCC19114; Table 15; read-out: MIC Listeria monocytogenes ATCC 19114
[17] = test system: Shigella dysenteriae ATCC 11835; assay: microbroth dilution MIC; format: cell-based; conditions: ATCC11835, Table 15, read-out: MIC Shigella dysenteriae ATCC 11835
S. aureus 29213 = assay: microbroth dilution MIC; format: cell-based, Staphylococcus aureus; conditions: Staphylococcus aureus, ATCC29213; Table 15; read-out: MIC Staphylococcus aureus ATCC 29213
[18] = test system: Streptococcus pneumoniae ATCC 70676; assay: microbroth dilution MIC; format: cell-based; conditions: ATCC70676, Table 15, read-out: MIC Streptococcus pneumoniae ATCC 70676
[19] = test system: Streptococcus pneumoniae 49619; assay: microbroth dilution MIC; format: cell-based; conditions: Streptococcus pneumoniae, ATCC49619; Table 15; read-out: MIC Streptococcus pneumoniae ATCC 49619
[20] = test system: Staphylococccus simulans 11631; assay: microbroth dilution MIC; format: cell-based, Staphylococcus simulans; conditions: Staphylococcus simulans, ATCC11631; Table 15; read-out: MIC Staphylococcus simulans ATCC 11631
[21] = test system: RNA synthesis in Bacillus subtilis; assay: macromolecular synthesis whole cell assay, [3H]uridine incorporation; format: cell-based; conditions: 1×MIC
E. faecium 49624 = assay: microbroth dilution MIC; format: cell-based, Enterococcus faecium; conditions: Enterococcus faecium, ATCC49624; Table 15; read-out: MIC Enterococcus faecium ATCC 49624
[22] = test system: Streptococcus pneumoniae ATCC 70674; assay: microbroth dilution MIC; format: cell-based; conditions: ATCC70674, Table 15, read-out: MIC Streptococcus pneumoniae ATCC 70674
S. aureus ATCC 6583P = assay: MIC with and without double stranded DNA; format: cell-based, Staphylococcus aureus; conditions: Staphylococcus aureus, ATCC6583P, read-out: MIC S. aureus ATCC 6583P

SMILES: CS[C@H]1SC[C@H]2C(=O)N(C)[C@@H](C(C)C)C(=O)OC[C@@H](NC(=O)c3cnc4ccccc4n3)C(=O)N[C@@H](C)C(=O)N(C)[C@@H]1C(=O)N(C)[C@@H](C(C)C)C(=O)OC[C@@H](NC(=O)c1cnc3ccccc3n1)C(=O)N[C@@H](C)C(=O)N2C [Echinomycin, reference compound]
- MIC (Bacillus anthracis 14578): 1.99 µg/mL (≈ 1.81 µM)
- % [3H]amino acid mixture (Protein synthesis) incorporation of that of the untreated culture ([1]; 5 min): 73%
- % [3H]amino acid mixture (Protein synthesis) incorporation of that of the untreated culture ([1]; 10 min): 62%
- MIC (E. faecalis 29212): 0.125 µg/mL (≈ 0.114 µM)
- % [3H]thymidine (DNA synthesis) incorporation of that of the untreated culture [2]: 1%
- MIC [3]: 0.5 µg/mL (≈ 0.454 µM)
- MIC (Bacillus anthracis 28): 2.4 µg/mL (≈ 2.18 µM)
- MIC [4]: 0.25 µg/mL (≈ 0.227 µM)
- MIC [5]: 0.125 µg/mL (≈ 0.114 µM)
- IC50 [6]: 0.145 µg/mL (≈ 0.132 µM)
- IC50 [7]: 0.0108 µg/mL (≈ 0.00981 µM)
- IC50 at 48 h ([8]; Example 15): 0.0108 ± 0.0011 µg/mL (≈ 0.00981 µM)
- IC50 at 48 h ([8]; text of Examples 18, 19): 4.8 µg/mL (≈ 4.36 µM)
- IC50 ([9]; BT-20, read-out: IC50 Human Breast Cancer Eipthelial BT-20, Table 12): 0.0048 µg/mL (≈ 0.00436 µM)
- IC50 ([9]; BT-20, read-out: IC50 human breast cancer cell line BT 20, text of Examples 15, 18, 19): 0.0048 µg/mL (≈ 0.00436 µM)
- IC50 human breast cancer cell line BT 20 ([9]; text of Examples 15, 18, 19, listed as echnimonycin): 0.0065 µg/mL (≈ 0.0059 µM)
- IC50 [10]: 0.023 µg/mL (≈ 0.0209 µM)
- MIC (S. epidermis 12228): 0.25 µg/mL (≈ 0.227 µM)
- 1×MIC against Bacillus subtilis (B. subtilis 1A757): 0.25 micrograms/ml
- MIC (B. subtilis 1A757; 1A757, DNA +, 20 micrograms per well of sheared salmon sperm DNA): 8 µg/mL (≈ 7.26 µM)
- MIC (B. subtilis 1A757; 1A757, DNA −): 0.125 µg/mL (≈ 0.114 µM)
- MIC [11]: 0.25 µg/mL (≈ 0.227 µM)
- Solubility in acetonitrile [12]: sparingly soluble
- MIC [13]: 1 µg/mL (≈ 0.908 µM)
- MIC [14]: 1.4 µg/mL (≈ 1.27 µM)
- IC50 [15]: 0.00408 ± 0.0001 µg/mL (≈ 0.0037 µM)
- MIC (Bacillus anthracis 62-8): 1.4 µg/mL (≈ 1.27 µM)
- MIC [16]: 0.5 µg/mL (≈ 0.454 µM)
- MIC [17]: 8 µg/mL (≈ 7.26 µM)
- MIC (S. aureus 29213): 0.5 µg/mL (≈ 0.454 µM)
- MIC [18]: < 0.0325 µg/mL
- MIC [19]: < 0.0325 µg/mL
- MIC [20]: 0.25 µg/mL (≈ 0.227 µM)
- % [3H]uridine (RNA synthesis) incorporation of that of the untreated culture ([21]; 5 min): 41%
- % [3H]uridine (RNA synthesis) incorporation of that of the untreated culture ([21]; 10 min): 37%
- MIC (E. faecium 49624): ≤ 0.062 µg/mL
- MIC [22]: < 0.0325 µg/mL
- MIC (S. aureus ATCC 6583P; DNA +, 20 micrograms per well of sheared salmon sperm DNA): 16 µg/mL (≈ 14.5 µM)
- MIC (S. aureus ATCC 6583P; DNA −): 0.5 µg/mL (≈ 0.454 µM)
